“Also recorded” adds a separate entry of the source.
Experiments:
[1] = test system: transition of primary CPPs to secondary CPPs; test: calciprotein particle (CPP) maturation time in human serum (Pasch test, FIG. 1); conditions: human pooled serum, 37° C., nephelometer up to 600 minutes
From the text: The y-axis indicates the half-maximal transition time (T50) in minutes of primary CPPs to secondary CPPs. IP6: myo-inositol hexakisphosphate (Biosynth); IS6: myo-inositol hexakissulfate (Sigma); IP2S4: 4,6-di-(O-phosphate)-myo-inositol 1,2,3,5-tetra-O-sulfate; IT2S4: 4,6-di-(O-thiophosphate)-myo-inositol 1,2,3,5-tetra-O-sulfate; IP5-PEG: 2-PEG(2000)-myo-inositol pentakisphosphate.
(§1) The inventors performed an in vitro assay that measures the propensity for calcification of human serum and has been clinically validated as a predictor of all-cause mortality in CKD patients and renal transplant recipients (as described in Pasch, Journal of the American
Society of Nephrology 23, 1744-1752, 2012). The experiment was carried out by mixing a calcium solution, human pooled serum, the test compound at the final concentration indicated and a phosphate solution, and the transition time of primary to secondary CPPs was measured at 37° C. using a nephelometer for up to 600 minutes.

[2] = In-solution screening of CaP precipitation and aggregation in artificial renal tubular fluid (RTF); assay type: physicochemical; conditions: 9 mM phosphate, 8 mM calcium, 4 h
Method: Effects of (A) OEG2-IP5, (B) OEG11-IP5, (C) (OEG2)2-IP4, (D) (OEG11)2-IP4 and (E) OEG8-(IP5)2. on CaP precipitation in RTF spiked with 9 mM disodium phosphate and 8 mM calcium chloride were assessed by light microscopy followed by automated image analysis at t=4 h. Quantification of the total area covered with CaP precipitates/total area field of view (N=3, mean+SD, normalized to the control).
Effects of (A) OEG2-IP5, (B) OEG11-IP5, (C) (OEG2)2-IP4, (D) (OEG11)2-IP4 and (E) OEG8-(IP5)2. on CaP precipitation in RTF spiked with 9 mM disodium phosphate and 8 mM calcium chloride were assessed by light microscopy followed by automated image analysis at t=4 h. Quantification of the mean size of aggregates/field of view normalized to the ctrl (N=3, mean+SD, normalized to the control).
Overview table showing the minimal concentration of compound (FIG. 3 for the chemical structures) required to achieve complete inhibition of CaP precipitation (total area covered with crystals <10% of total area control); and minimal concentration required to prevent CaP crystal aggregation in the CaP screening assay (CaP aggregate size <50% of aggregate size control) (N=3).
An artificial renal tubular fluid (RTF) with a final composition of 0.05 mM oxalate, 0.005 mM sulphate, 408 mM sodium, 424 mM chloride, 0.26 mM potassium, 4 mM magnesium and 0.2 mM citrate in double distilled water was prepared according to a literature report (Fasano, J. M. et al., Kidney Int. 59, 169-178. DOI: 10.1046/j. 1523-1755.2001.00477.x, 2001). The solution was filtered with a 0.45-μm syringe filter. Twenty mM Bis-Tris buffer was added to the reported protocol to ensure pH stability throughout experiments and pH was set to 7.2. The artificial RTF was stored at room temperature for up to four months. Stock solutions of 0.25 M phosphate and 1 M calcium were prepared in double distilled water and were stored separately at −20° C.
Twenty-x final concentration phosphate, 20× final concentration calcium and 10× final concentration compound dilutions were prepared in RTF. Assay mixture consisting of 80% RTF, 10% compound dilution, 5% phosphate dilution and 5% calcium dilution was prepared in Eppendorf tubes as follows. RTF (320 μL) was mixed with 20 μL phosphate dilution (final concentration of 9 mM), 40 μL compound dilution and 20 μL calcium dilution (final concentration of 8 mM). The assay mixture was vortexed after adding each component and 380 μL of the mixture were immediately added to 8-well glass bottom slides and incubated for 4 hat RT. CaP precipitation was assessed using a Leica DM 6000B microscope (Leica Microsystems, Wetzlar, Germany) in brightfield mode. For quantification 3 wells/condition with 3-4 images/well were imaged with a 40× objective. The total area covered with CaP deposits in percentage of the field of view and the mean size of CaP aggregates were determined.
In a first step, the influence of selected IP6 analogues (FIG. 5) on CaP precipitation and growth was assessed in vitro using artificial renal tubular fluid (RTF) (Table 1). In a previous study, the inventors investigated CaP protein particle formation in serum. However, an important difference to cardiovascular calcification lies in the extremely low protein content of the renal tubular fluid vs. the high abundance of proteins in blood, which can stabilize amorphous particles. Two cut-offs were chosen for assessing efficacy. First, complete inhibition was defined as a >90% reduction of detected CaP precipitates compared to the control sample without compound. Second, inhibition of CaP aggregation was defined as a >50% reduction of the mean size of aggregates when compared to the control.

[3] = test system: RPTEC/TERT 1 human proximal tubule cells; test: Imaging assay of CaP adhesion/deposition and cellular changes on RPTEC monolayers; assay type: cell-based; conditions: RPTEC, 7 mM phosphate, 5 mM calcium, 24 h
From the text: (A) Heatmap and hierarchical clustering of extracted image features. (B) Selected single features describing cellular changes upon increasing (OEG2)2-IP4 concentrations are depicted. Total cell count, dead cell count, single cell area and single cell solidity, a measure of cell compactness, are shown. (C) Selected single features describing changes in the CaP deposition and membrane pattern upon increasing (OEG2)2-IP4 concentrations are depicted. The total area of the binary calcein staining, colorimetric quantification of calcium content extracted from the monolayer, the maximum intensity of the calcein fluorescence, structural similarity index metric (SSIM) and the correlation of the CellMask channel image are shown. (D) Example brightfield, calcein, CellMask and EthD channel images and two zoomed-in regions of interests (ROI) of RPTEC treated with 13 μM (OEG2)2-IP4 are shown. Mean scaled values per individual experiment are plotted (N=3). Pos.ctrl presents treatment with 5/7 mM Ca/P, neg.ctrl presents medium without Ca/P spiking (=1/1 mM Ca/P present in normal cell medium). Mean of three individual experiments and SD is plotted as grey horizontal and vertical line respectively, one-way ANOVA with Dunnet's multiple comparison between each concentration to pos. ctrl was performed (* p<0.01).
RPTEC/TERT 1 monolayers at confluence were treated with medium spiked with 7 mM disodium phosphate, 5 mM calcium chloride and compound and were incubated for 24 h. The amount of CaP deposits and the extent of cell injury were detected by calcein and EthD staining, respectively. Fluorescence images were quantified using Matlab. Quantification of the area covered with CaP deposition on RPTEC monolayers with (A) OEG2-IP5, (B) OEG11-IP5, (C) (OEG2)2-IP4, and (D) OEG8-(IP5)2 treatment. (N=3, mean+SD, one-way ANOVA with Dunnett's multiple comparison, * p<0.05, ** p<0.01, *** p<0.001).
RPTEC/TERT 1 human proximal tubule cells (RPTEC) were cultured in T75 tissue culture flasks using ProxUp basal medium mixed with ProxUp supplements at 37° C. and 5% CO2 according to manufacturer's recommendations. Cells were used up to passage 30 and regularly tested for Mycoplasma infections. For experiments, RPTEC were cultured in 24-well plates at a seeding density of 150′000 cells/cm^2. Cell viability assessment and cell counting before seeding was performed using an automated cell counter (BioRad TC 20, Hercules, CA, USA).
For the comparison of selected IP6 analogues, ProxUp basal medium was prepared with the selected inhibitor and added to each well. Then, CaP precipitation was induced by direct addition of first, phosphate and second, calcium. Final concentrations of 7 mM phosphate and 5 mM calcium were used. Cells were incubated for 24 h at 37° C. and 5% CO2. Spiked medium was removed, and cells were washed twice with PBS before staining.
For staining, ProxUp basal medium was mixed with calcein (500 nM final concentration), EthD (6 μM final concentration), CellMask stain ([…]) and Hoechst 33342. Staining mixture was added to RPTEC and cells were incubated for 30 min in the dark at 37° C. and 5% CO2. Staining solution was removed, cells were washed with PBS once and ProxUp basal medium was added. Cells were immediately imaged after staining. Images were obtained by epifluorescence microscopy at 37° C., using a Leica CTR6000 microscope. For quantification 3 wells/condition were prepared and 3 images/well were taken. For preliminary adhesion experiments images were taken with a 10× objective, for the imaging assay 20× objective images were taken.
Multichannel images were saved as individual channel images in 8-bit tiff format. For analysis Hoechst channel images were thresholded using the triangle threshold. Touching nuclei of the binary image were further segmented using the watershed algorithm with the distance transform of the binary image as input and local maxima thereof as seeds. […]

[4] = test system: transition of primary CPPs to secondary CPPs; test: CPP maturation time in human serum, similar test with test compounds added last (FIG. 2); conditions: test compounds added to the reaction mixture last
Method: as §1
Society of Nephrology 23, 1744-1752, 2012). […], and the transition time of primary to secondary CPPs was measured at 37° C. using a nephelometer for up to 600 minutes.

With `O=S(=O)(O)O[C@@H]1[C@@H](OP(O)(O)=S)[C@H](OS(=O)(=O)O)[C@H](OS(=O)(=O)O)[C@H](OS(=O)(=O)O)[C@H]1OP(O)(O)=S` [IT2S4, 4,6-di-(O-thiophosphate)-myo-inositol 1,2,3,5-tetra-O-sulfate] the “activity on half-maximal transition time (T50) of primary CPPs to secondary CPPs” value (shortened to “activity on half-maximal transition time”) [1] was “more active than IP6”.

For `COCCOCCO[C@@H]1[C@@H](OP(=O)(O)O)[C@H](OP(=O)(O)O)[C@@H](OP(=O)(O)O)[C@@H](OP(=O)(O)O)[C@H]1OP(=O)(O)O` [OEG2-IP5], the “concentration for complete inhibition of CaP precipitation (>90% reduction of CaP precipitates vs control)” value [2] was 30 µM, the “concentration for inhibition of CaP aggregation (>50% reduction of mean size of aggregates vs control)” value [2] was 1 µM and the “concentration achieving complete inhibition of CaP adhesion” value [3] was 50 µM.

For `COCCOCCOCCOCCOCCOCCOCCOCCOCCOCCOCCO[C@@H]1[C@@H](OP(=O)(O)O)[C@H](OP(=O)(O)O)[C@@H](OP(=O)(O)O)[C@@H](OP(=O)(O)O)[C@H]1OP(=O)(O)O` [OEG11-IP5], the aggregation inhibitory concentration [2] was 300 nM and the “concentration achieving complete inhibition of CaP adhesion” value [3] was 50 µM.

In the case of `COCCOCCO[C@@H]1C(OP(=O)(O)O)[C@H](OCCOCCOC)[C@@H](OP(=O)(O)O)C(OP(=O)(O)O)[C@H]1OP(=O)(O)O` (stereo partly shown) [INS-3001], the “activity on transition time of primary to secondary CPPs” value [4] was “more active than IP6; also recorded: more active than the compounds having one PEG moiety”.

For `O=P(O)(O)O[C@H]1[C@H](OP(=O)(O)O)[C@@H](OP(=O)(O)O)[C@H](OP(=O)(O)O)[C@@H](OP(=O)(O)O)[C@H]1OP(=O)(O)O` [IP6, myo-inositol hexakisphosphate, reference compound], the concentration at which CaP precipitation was promoted [2] was 10 µM.

With “cyclohexane hexacarboxylic acid [IC6, reference compound]” the “effect on CaP precipitation/crystallization in words” value [2] was “weak inhibitory properties”.

In the case of `O=S(=O)(O)OC1C(OS(=O)(=O)O)C(OS(=O)(=O)O)C(OS(=O)(=O)O)C(OS(=O)(=O)O)C1OS(=O)(=O)O` (stereo not shown) [IS6, myo-inositol hexakissulfate, reference compound], the “effect on CaP precipitation/crystallization in words” value [2] was “weak inhibitory properties”.

With “2-PEG(2000)-myo-inositol pentakisphosphate [Compound 2-PEG-IP5]” the “activity on half-maximal transition time” value [1] was “far more active than any other compound”.

Work on `O=P(O)(O)OC1[C@@H](OP(=O)(O)O)[C@H](OP(=O)(O)O)C(O)[C@H](OP(=O)(O)O)[C@H]1OP(=O)(O)O` (stereo partly shown) [IP5, myo-inositol pentakisphosphate, reference compound] yielded a concentration at which CaP precipitation was promoted [2] of 30 µM.

In the case of `O=P(O)(O)OC1C(OS(=O)(=O)O)C(OP(=O)(O)O)C(OS(=O)(=O)O)C(OS(=O)(=O)O)C1OS(=O)(=O)O` (stereo not shown) [IP2S4, 4,6-di-(O-phosphate)-myo-inositol 1,2,3,5-tetra-O-sulfate], the “activity on half-maximal transition time” value [1] was “more active than IP6”.

— patent publication US12076331B2, “Inositol derivatives for use in pathological crystallization” (ETH Zurich, priority 2015, dated 2024)
